From patent US20180036289A1 (Gilead Sciences, Inc., priority 2016, published 2018)

What was measured:
Format in all cases: cell-based
T24 = experiment: Cell proliferation assay (ATPlite), drug with vs without cobicistat; conditions: T24 cell line; 120 hours incubation
Outline: (§1)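 Following 24 h of growth after seeding at 200–3200 cells/well, cultures received test compound in duplicate over a 9-point dilution series (3.16×10^−5–3.16×10^−9 M; 0.4% DMSO). They were incubated a further 120 h before luminescent ATP detection.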

COLO 829 = experiment: as above; conditions: COLO 829 cell line; 120 hours incubation
Outline: as §1

Jurkat E6.1 = experiment: as above; conditions: Jurkat E6.1 cell line; 120 hours incubation
Outline: as §1

LS 174T = experiment: as above; conditions: LS 174T cell line; 120 hours incubation
Outline: as §1

NCI-H460 = experiment: as above; conditions: NCI-H460 cell line; 120 hours incubation
Outline: as §1

RKO = experiment: as above; conditions: RKO cell line; 120 hours incubation
Outline: as §1

cell lines tested = experiment: Cell proliferation assay, summary across all cell lines and drugs; conditions: comparison among the six primary drugs
Experimental: All cell lines were obtained from the American Type Culture Collection (ATCC) Manassas, Va. (US). Master and working cell banks (MCB and WCB) were prepared by subculturing in ATCC-recommended media and freezing protocols (www.atcc.org). Cell line stocks for the assays were prepared from the WCB. The MCB, WCBs and assay stocks were prepared within respectively 3, 6 and 9 passages of the ATCC vial.
Solid powders of reference compounds were weighed on a calibrated balance and dissolved in 100% DMSO. DMSO samples were stored at room temperature. At the day of the experiment, the compound stock was diluted in 3.16 fold steps in 100% DMSO to obtain a 9-point dilution series. This was further diluted 31.6 times in 20 mM sterile Hepes buffer pH 7.4. A volume of 5 μl was transferred to the cells to generate a test concentration range from 3.16×10^−5M to 3.16×10^−9 M in duplicate. The final DMSO concentration during incubation was […] in all wells.
An assay stock was thawed and diluted in its ATCC recommended medium and dispensed in a 384-well plate, depending on the cell line used, at a concentration of 200-3200 cells per well in 45 μl medium. For each used cell line the optimal cell density is used. The margins of the plate were filled with phosphate-buffered saline. Plated cells were incubated in a humidified atmosphere of 5% CO2 at 37° C. After 24 hours, 5 μl of compound dilution was added and plates were further incubated for another 120 hours. After 120 hours, 25 μl of ATPlite 1Step™ (PerkinElmer) solution was added to each well, and subsequently shaken for 2 minutes. After 10 minutes of incubation in the dark, the luminescence was recorded on an Envision multimode reader (PerkinElmer).
IC50s were calculated by non-linear regression using IDBS XLfit 5. The percentage growth after 120 h (%-growth) was calculated as follows: 100%×(luminescencet=120h/luminescenceuntreated,t=120h). This was fitted to the ^10log compound concentration (conc) by a 4-parameter logistics curve: %−growth=bottom+(top−bottom)/(1+10^(log IC50-conc)*hill)), where hill is the Hill-coefficient, and bottom and top the asymptotic minimum and maximum cell growth that the compound allows in that assay.

SMILES | Fold change in IC50 (IC50 [Drug + Cobicistat]/IC50 [Drug]) (T24) | Fold change in IC50 (IC50 [Drug + Cobicistat]/IC50 [Drug]) (COLO 829) | Fold change in IC50 (IC50 [Drug + Cobicistat]/IC50 [Drug]) (Jurkat E6.1) | Fold change in IC50 (IC50 [Drug + Cobicistat]/IC50 [Drug]) (LS 174T) | Fold change in IC50 (IC50 [Drug + Cobicistat]/IC50 [Drug]) (NCI-H460) | Fold change in IC50 (IC50 [Drug + Cobicistat]/IC50 [Drug]) (RKO) | extent of boosting by cobicistat (cell lines tested)
Cc1nc(Nc2ncc(C(=O)Nc3c(C)cccc3Cl)s2)cc(N2CCN(CCO)CC2)n1 [dasatinib] | 3.9 fold | – | – | – | – | – | –
CC(=O)O[C@@]12CO[C@@H]1C[C@H](O)[C@@]1(C)C(=O)[C@H](O)C3=C(C)[C@@H](OC(=O)[C@H](O)[C@@H](NC(=O)OC(C)(C)C)c4ccccc4)C[C@@](O)([C@@H](OC(=O)c4ccccc4)[C@H]21)C3(C)C [docetaxel] | 6.3 fold | 3.7 fold | 2.2 fold | 2.8 fold | 2.1 fold | 3.8 fold | boosted to the greatest extent
COc1cccc2c1C(=O)c1c(O)c3c(c(O)c1C2=O)C[C@@](O)(C(=O)CO)C[C@@H]3O[C@H]1C[C@H](N)[C@H](O)[C@H](C)O1 [doxorubicin] | 1.8 fold | 3.8 fold | 2.5 fold | 3.6 fold | 2.0 fold | 2.9 fold | –
CC(=O)O[C@H]1C(=O)[C@@]2(C)[C@H]([C@H](OC(=O)c3ccccc3)[C@]3(O)C[C@H](OC(=O)[C@H](O)[C@@H](NC(=O)c4ccccc4)c4ccccc4)C(C)=C1C3(C)C)[C@]1(OC(C)=O)CO[C@@H]1C[C@@H]2O [paclitaxel] | 4.4 fold | 4.1 fold | 2.5 fold | 1.8 fold | 2.0 fold | 3.3 fold | –
CC[C@]1(O)C[C@@H]2CN(CCc3c([nH]c4ccccc34)[C@@](C(=O)OC)(c3cc4c(cc3OC)N(C)[C@H]3[C@@](O)(C(=O)OC)[C@H](OC(C)=O)[C@]5(CC)C=CCN6CC[C@]43[C@@H]65)C2)C1 [vinblastine] | 5.2 fold | 6.3 fold | 2.5 fold | 3.4 fold | 3.4 fold | 3.6 fold | boosted to the greatest extent
CC[C@]1(O)C[C@H]2CN(CCc3c([nH]c4ccccc34)[C@@](C(=O)OC)(c3cc4c(cc3OC)N(C=O)[C@H]3[C@@](O)(C(=O)OC)[C@H](OC(C)=O)[C@]5(CC)C=CCN6CC[C@]43[C@@H]65)C2)C1 [vincristine] | 4.4 fold | 4.4 fold | 2.8 fold | 2.5 fold | 3.1 fold | 3.7 fold | boosted to the greatest extent
